# Assays:
# [1] = test system: E. clo 13047; assay: Selective lysis test, OD600 turbidity (Example 1); assay type: cell-based, Enterobacter cloacae
# Description: (§1) An isolated colony from an overnight Tryptocase Soy Agar (TSA) plate of each bacterial strain was suspended in 1 ml Tryptocasc Soy Broth (TSB) in a 5 ml BD polystyrene round bottom tube. TSB cultures were incubated shaking at 37° C. overnight. Ten of the overnight culture was inoculated into lml TSB and incubated shaking at 37° C. for three hours. Two […] aliquots of each log-phase culture were then transferred to two 2 ml Eppendorf microcentrifuge tubes. One tube contained 5000 of Normal Saline (BD); the second tube contained 5000 Normal Saline with meropenem at 10 μg/ml (final concentration of meropenem of 6.67 10 μg/ml). Tubes were inverted and then incubated at 37° C. stagnant for thirty minutes. Then […] of lysis buffer (0.5% SDS in PSB) (final concentration of SDS of 0.125%) was added to each tube and the tubes were vortexed for 5 seconds. Post incubation, all tubes were spun at 10000 G for 5 minutes. Supernatant was decanted and the pellet resuspended in Normal Saline. Tubes were vortexed again. OD600 was measured using Eppendorf uvettes in a spectrophotometer. The delta between the OD600 of the normal saline control and the OD600 for the test sample exposed to meropenem in normal saline was used to determine susceptibility of the bacterial strain to meropenem.
# [2] = test system: K. pneumo 8308; assay: Selective lysis test, OD600 turbidity (Example 1); assay type: cell-based, Klebsiella pneumoniae
# Description: as §1
# [3] = test system: K. pneumo KPC 12213; assay: Selective lysis test, OD600 turbidity (Example 1); assay type: cell-based, Klebsiella pneumoniae
# Description: as §1
# (§2) The tested resistant strains were Klebsiella pneumoniae carbapenemase (KPC)-producing bacteria (abbreviated “KPC”), KPC-producing Klebsiella oxytoca (abbreviated “KPC K. oxy), and Klebsiella pneumoniae producing Metallo-beta-lactamase-1 (NDM-1) (abbreviated “NDM”).
# [4] = test system: K. pneumo KPC 1705; assay: Selective lysis test, OD600 turbidity (Example 1); assay type: cell-based, Klebsiella pneumoniae
# Description: as §1, §2
# [5] = test system: K. pneumo KPC 24605; assay: Selective lysis test, OD600 turbidity (Example 1); assay type: cell-based, Klebsiella pneumoniae
# Description: as §1, §2
# [6] = test system: K. pneumo KPC 41217; assay: Selective lysis test, OD600 turbidity (Example 1); assay type: cell-based, Klebsiella pneumoniae
# Description: as §1, §2
# [7] = test system: K. pneumo KPC 4121; assay: Selective lysis test, OD600 turbidity (Example 1); assay type: cell-based, Klebsiella pneumoniae
# Description: as §1, §2
# [8] = test system: K. pneumo KPC 65707; assay: Selective lysis test, OD600 turbidity (Example 1); assay type: cell-based, Klebsiella pneumoniae
# Description: as §1, §2
# [9] = test system: K. pneumo KPC KPC12; assay: Selective lysis test, OD600 turbidity (Example 1); assay type: cell-based, Klebsiella pneumoniae
# Description: as §1, §2
# [10] = test system: K. pneumo NDM 2146; assay: Selective lysis test, OD600 turbidity (Example 1); assay type: cell-based, Klebsiella pneumoniae
# Description: as §1, §2
# [11] = test system: E. coli BAA-197 (ESBL); assay: Selective lysis test, OD600, meropenem and cefotaxime (Example 2); assay type: cell-based
# Description: In this experiment the following strains were tested: strain K. pneumoniae 13882 (previously considered meropenem sensitive and cefotaxime sensitive); E. coli BAA-197 (ESBL) (which expresses an extended-spectrum (beta)-lactamase enzyme and was previously considered meropenem sensitive and cefotaxime resistant); K. pneumoniae BAA-1705 (KPC) (which expresses a carbapenemase enzyme and was previously considered meropenem resistant and cefotaxime resistant); and K. pneumoniae BAA-2146 (NDM1) (which expresses the metallo-beta-lactamase-1 enzyme and was previously considered meropenem resistant and cefotaxime resistant).
# An isolated colony from an overnight Tryptocase Soy Agar (TSA) plate of each bacteria was suspended in 1 ml Tryptocase Soy Broth (TSB) in a 5 ml BD polystyrene round bottom tube. TSB cultures were incubated at 37° C. for 1.5 hours shaking. Three 250 μl aliquots of each stationary-phase culture were then transferred to three 2 ml Eppendorf microcentrifuge tubes. One tube contained 500 μl of Normal Saline (BD); the second tube contained 500 μl Normal Saline with meropenem at 10 μg/ml; and the third tube contained 500 μl Normal Saline with cefotaxime (abbreviated […]) at 10 μg/ml. Tubes were inverted then incubated at 37° C. stagnant for thirty minutes. Then […] of lysis buffer (0.5% SDS in PSB) was added to each tube and each tube was vortexed for 5 seconds. Post incubation, all tubes were spun at 10000 G for 5 minutes. Supernatant was decanted and the pellet resuspended in Normal Saline. Tubes were vortexed. OD600 was measured using Eppendorf uvettes in a spectrophotometer. The delta between the control and the meropenem normal saline, or the control and the cefotaxime normal saline was used to determine susceptibility.
# [12] = OD600 vs control without meropenem
# [13] = meropenem 10 μg/ml, 30 min, SDS lysis buffer + vortex
smiles,measurement,setting,value
C[C@@H](O)[C@H]1C(=O)N2C(C(=O)O)=C(S[C@@H]3CN[C@H](C(=O)N(C)C)C3)[C@H](C)[C@H]12 [meropenem],R or S,[1],S (a percentage change of greater than about 85% indicates a strain is susceptible)
same,% Change,[1]; [12],95%
same,Mero OD600,[1]; [13],0.06
same,R or S,[2],S (a percentage change of greater than about 85% indicates a strain is susceptible)
same,% Change,[2]; [12],98%
same,Mero OD600,[2]; [13],0.053
same,R or S,[3],R
same,% Change,[3]; [12],−5%
same,Mero OD600,[3]; [13],1.454
same,R or S,[4],R
same,% Change,[4]; [12],−32%
same,Mero OD600,[4]; [13],1.65
same,R or S,[5],R
same,% Change,[5]; [12],6%
same,Mero OD600,[5]; [13],2.0363
same,R or S,[6],R
same,% Change,[6]; [12],5%
same,Mero OD600,[6]; [13],1.764
same,R or S,[7],R
same,% Change,[7]; [12],−3%
same,Mero OD600,[7]; [13],1.734
same,R or S,[8],R
same,% Change,[8]; [12],12%
same,Mero OD600,[8]; [13],1.887
same,R or S,[9],R
same,% Change,[9]; [12],2%
same,Mero OD600,[9]; [13],1.844
same,R or S,[10],R
same,% Change,[10]; [12],18%
same,Mero OD600,[10]; [13],1.576
same,assay score (sensitive or resistant),[11],sensitive
same,% diff,[11]; OD600 vs control,87.3%
same,OD600,"[11]; antibiotic 10 μg/ml, 30 min, SDS lysis buffer + vortex, 1.5 h culture",0.046

# — patent US20160281125A1, “ANTIMICROBIAL COMPOUND SUSCEPTIBILITY TEST” (priority 2013, published 2016)
